The record followed here is patent US11046689B2, “Selective estrogen receptor down-regulators” (AstraZeneca AB, priority 2017, dated 2021).

For the experiment, the target named is Estrogen Receptor (ER) in MCF-7 cells (Homo sapiens (Human), UniProt P03372). As to the kind of experiment: MCF-7 ER down-regulation assay (immuno-fluorescence). Type of experiment: cell-based. The conditions noted are these: stated where not >90%.
Sequence of Estrogen Receptor (ER) in MCF-7 cells (P03372 whole entry): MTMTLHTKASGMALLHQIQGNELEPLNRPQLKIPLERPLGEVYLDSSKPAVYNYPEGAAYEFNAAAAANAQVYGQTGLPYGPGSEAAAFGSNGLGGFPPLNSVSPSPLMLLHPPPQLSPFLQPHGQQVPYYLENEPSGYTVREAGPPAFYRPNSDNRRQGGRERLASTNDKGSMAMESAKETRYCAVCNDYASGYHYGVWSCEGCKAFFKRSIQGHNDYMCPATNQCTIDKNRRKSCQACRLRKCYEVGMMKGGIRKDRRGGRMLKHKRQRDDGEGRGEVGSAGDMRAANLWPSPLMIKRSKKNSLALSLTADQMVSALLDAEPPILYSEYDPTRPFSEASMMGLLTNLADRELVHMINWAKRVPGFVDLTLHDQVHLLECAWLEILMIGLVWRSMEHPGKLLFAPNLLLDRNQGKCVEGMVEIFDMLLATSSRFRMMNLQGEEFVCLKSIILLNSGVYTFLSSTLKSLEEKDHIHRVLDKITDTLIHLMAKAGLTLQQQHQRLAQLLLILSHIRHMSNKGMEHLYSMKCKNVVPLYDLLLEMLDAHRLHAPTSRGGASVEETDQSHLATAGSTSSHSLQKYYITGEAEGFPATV
Method: The ability of compounds to down-regulate Estrogen Receptor (ER) numbers was assessed in a cell based immuno-fluorescence assay using the MCF-7 human ductal carcinoma breast cell line. MCF-7 cells were revived directly from a cryovial (approx 5×10^6 cells) in Assay Medium (phenol red free Dulbecco's Modified Eagle's medium (DMEM); Sigma D5921) containing 2 mM L-Glutamine and 5% (v/v) Charcoal/Dextran treated foetal calf serum. Cells were syringed once using a sterile 18G×1.5 inch (1.2×40 mm) broad gauge needle and cell density was measured using a Coulter Counter (Beckman). […] Following cell seeding, plates were incubated overnight at 37° C., 5% CO2 (Liconic carousel incubator). Test data was generated using the LabCyte Echomodel 555 compound reformatter which is part of an automated workcell (Integrated Echo 2 workcell). Compound stock solutions (10 mM) of the test compounds were used to generate a 384 well compound dosing plate (Labcyte P-05525-CV1). […] 40 μL of DMSO added to wells in row P on the source plate allowed for DMSO normalisation across the dose range. To dose the control wells 40 μL of DMSO was added to row O1 and 40 μL of 100 μM fulvestrant in DMSO was added to row O3 on the compound source plate.
The Echo uses acoustic technology to perform direct microplate-to-microplate transfers of DMSO compound solutions to assay plates. The system can be programmed to transfer volumes as low as 2.5 nL in multiple increments between microplates and in so doing generates a serial dilution of compound in the assay plate which is then back-filled to normalise the DMSO concentration across the dilution range. […] The fixing method described above was carried out on the Integrated Echo 2 workcell. Immunostaining was performed using an automated AutoElisa workcell. The PBS/Proclin was aspirated from all wells and the cells permeabilised with 40 μL PBS containing 0.5% Tween™ 20 (v/v) for 1 hour at room temperature. The plates were washed three times in 250 μL of PBS/0.05% (v/v) Tween 20 with Proclin (PBST with a Biocide preservative) and then 20 μL of ERα (SP1) Rabbit monoclonal antibody (Thermofisher) 1:1000 in PBS/Tween™/3% (w/v) Bovine Serum Albumin was added. The plates were incubated overnight at 4° C. (Liconic carousel incubator) and then washed three times in 250 μL of PBS/0.05% (v/v) Tween™ 20 with Proclin (PBST). The plates were then incubated with 20 μL/well of a goat anti-rabbit IgG AlexaFluor 594 or goat anti-rabbit AlexaFluor 488 antibody (Molecular Probes) with Hoechst at 1:5000 in PBS/Tween™/3% (w/v) Bovine Serum Albumin for 1 hour at room temperature. The plates were then washed three times in 250 μL of PBS/0.05% (v/v) Tween™ 20 with Proclin (PBST with a Biocide preservative). 20 μL of PBS was added to each well and the plates covered with a black plate seal and stored at 4° C. before being read. […] The mean total intensity was normalized for cell number giving the total intensity per cell. The data was exported into a suitable software package (such as Origin) to perform curve fitting analysis.
In the case of `C[C@@H]1Cc2c([nH]c3ccccc23)[C@@H](c2cccc(OCCNCCCF)n2)N1CC(F)(F)F` [Example 34, 3-fluoro-N-(2-((6-((1S,3R)-3-methyl-2-(2,2,2-trifluoroethyl)-2,3,4,9-tetrahydro-1H-pyrido[3,4-b]indol-1-yl)pyridin-2-yl)oxy)ethyl)propan-1-amine], the “% downregulation (shown in brackets)” value was “−(41%)”. For the molecule `COc1ccc(O[C@H](C)CNCCCF)cc1[C@@H]1c2[nH]c3ccccc3c2C[C@@H](C)N1CC(F)(F)CO` [Example 47, 2,2-difluoro-3-((1R,3R)-1-(5-(((R)-1-((3-fluoropropyl)amino)propan-2-yl)oxy)-2-methoxyphenyl)-3-methyl-1,3,4,9-tetrahydro-2H-pyrido[3,4-b]indol-2-yl)propan-1-ol], the “% downregulation (shown in brackets)” value is given as 81%.

In the case of `COc1ccc(OC[C@@H](C)NCCCF)cc1[C@@H]1c2[nH]c3ccccc3c2C[C@@H](C)N1CC(F)(F)CO` [Example 50, 2,2-difluoro-3-((1R,3R)-1-(5-((R)-2-((3-fluoropropyl)amino)propoxy)-2-methoxyphenyl)-3-methyl-1,3,4,9-tetrahydro-2H-pyrido[3,4-b]indol-2-yl)propan-1-ol], the “% downregulation (shown in brackets)” value is recorded as 81%. `COc1ccc(OCCNCCCF)cc1[C@@H]1c2[nH]c3ccccc3c2C[C@@H](C)N1C[C@H](C)C(=O)O` [Example 53, (S)-3-((1R,3R)-1-(5-(2-((3-fluoropropyl)amino)ethoxy)-2-methoxy-phenyl)-3-methyl-1,3,4,9-tetrahydro-2H-pyrido[3,4-b]indol-2-yl)-2-methyl-propanoic acid]: the “% downregulation (shown in brackets)” value is reported as “−(40%)”. Consider `COCc1ccc(OCCNCCCF)cc1[C@@H]1c2[nH]c3ccccc3c2C[C@@H](C)N1CC(F)(F)F` [Example 71, 3-fluoro-N-(2-(4-(methoxy-methyl)-3-((1R,3R)-3-methyl-2-(2,2,2-trifluoroethyl)-2,3,4,9-tetrahydro-1H-pyrido[3,4-b]indol-1-yl)phenoxy)ethyl)propan-1-amine], for which the “% downregulation (shown in brackets)” value worked out at 90%.

Regarding `COc1ccc(OCCNCCCF)c(F)c1[C@@H]1c2[nH]c3ccccc3c2C[C@@H](C)N1CC1(F)CC1` [Example 83, 3-fluoro-N-(2-(2-fluoro-3-((1R,3R)-2-((1-fluorocyclo-propyl)methyl)-3-methyl-2,3,4,9-tetrahydro-1H-pyrido[3,4-b]indol-1-yl)-4-methoxy-phenoxy)ethyl)propan-1-amine], the “% downregulation (shown in brackets)” value is 90%.

On to `COc1ccc(OCCNCCCF)c(F)c1[C@@H]1c2[nH]c3ccccc3c2C[C@@H](C)N1CC1(F)COC1` [Example 84, 3-fluoro-N-(2-(2-fluoro-3-((1R,3R)-2-((3-fluorooxetan-3-yl)methyl)-3-methyl-2,3,4,9-tetrahydro-1H-pyrido[3,4-b]indol-1-yl)-4-methoxy-phenoxy)ethyl)propan-1-amine], for which the “% downregulation (shown in brackets)” value was determined as 83%. For `Cc1c(OCCNCCCF)ccc(F)c1[C@@H]1c2[nH]c3ccccc3c2CC(C)(C)N1C[C@H](C)C(=O)O` [Example 134, (S)-3-((R)-1 (6-fluoro-3-(2-((3-fluoro-propyl)amino)ethoxy)-2-methylphenyl)-3,3-dimethyl-1,3,4,9-tetrahydro-2H-pyrido[3,4-b]indol-2-yl)-2-methyl-propanoic acid] the value was 85%.

`C[C@@H]1Cc2c([nH]c3ccccc23)[C@@H](c2c(F)ccc(OCCN(C)CCCF)c2F)N1C[C@H](C)C(=O)O` [Example 144]: the “% downregulation (shown in brackets)” value was found to be 88%. For the molecule `C[C@@H]1Cc2c([nH]c3ccccc23)[C@@H](c2c(F)ccc(OCCN(C)CCCF)c2C(F)F)N1C[C@H](C)C(=O)O` [Example 148, (S)-3-((1R,3R)-1-(2-(difluoro-methyl)-6-fluoro-3-(2-((3-fluoro-propyl)(methyl)amino)ethoxy)phenyl)-3-methyl-1,3,4,9-tetrahydro-2H-pyrido[3,4-b]indol-2-yl)-2-methyl-propanoic acid], the “% downregulation (shown in brackets)” value is reported as 68%. Take `Cc1c(OCCN(C)CCCF)ccc(F)c1[C@@H]1c2[nH]c3ccccc3c2C[C@@H](C(F)(F)F)N1C[C@H](C)C(=O)O` [Example 149, (S)-3-((1R,3S)-1-(6-fluoro-3-(2-((3-fluoropropyl)(methyl)amino)ethoxy)-2-methylphenyl)-3-(trifluoro-methyl)-1,3,4,9-tetrahydro-2H-pyrido[3,4-b]indol-2-yl)-2-methyl-propanoic acid]: the “% downregulation (shown in brackets)” value is listed as 86%. On to `C[C@@H]1Cc2c([nH]c3ccccc23)[C@@H](c2c(F)ccc(OCCN(C)CCCF)c2F)N1CC1(F)COC1` [Example 154, N-(2-(2,4-difluoro-3-((1R,3R)-2-((3-fluorooxetan-3-yl)methyl)-3-methyl-2,3,4,9-tetrahydro-1H-pyrido[3,4-b]indol-1-yl)phenoxy)ethyl)-3-fluoro-N-methyl-propan-1-amine], for which the “% downregulation (shown in brackets)” value was 79%.
